Measured values published in publication PMC2719696, “Kinetics and Cellular Site of Glycolipid Loading Control the Outcome of Natural Killer T Cell Activation” (Immunity, 2009).

Tests used:
mCD1d.WT = target: T1, mCD1d.WT (Mus musculus, UniProt P11609); test: iNKT hybridoma DN3A4.1-2 stimulation with A20 cells expressing wild-type mCD1d, IL-2 release; type: cell-based; conditions: A20 B lymphoma cells expressing mCD1d.WT; compared to all Th2 cell-type cytokine-biasing analogs
T1 construct: expressed in transfected cells; host or cells: A20 B lymphoma cells (provided by M. Kronenberg)
T1 sequence (P11609 22-336): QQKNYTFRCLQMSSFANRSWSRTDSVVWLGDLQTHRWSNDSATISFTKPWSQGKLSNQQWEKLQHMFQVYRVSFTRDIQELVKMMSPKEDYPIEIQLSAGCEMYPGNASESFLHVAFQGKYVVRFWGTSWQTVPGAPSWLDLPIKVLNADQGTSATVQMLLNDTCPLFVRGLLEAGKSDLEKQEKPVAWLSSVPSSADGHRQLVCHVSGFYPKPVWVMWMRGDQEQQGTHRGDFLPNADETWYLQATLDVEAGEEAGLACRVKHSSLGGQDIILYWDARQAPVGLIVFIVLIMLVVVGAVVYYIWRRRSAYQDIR
T1 sequence (P01887 21-119 partner): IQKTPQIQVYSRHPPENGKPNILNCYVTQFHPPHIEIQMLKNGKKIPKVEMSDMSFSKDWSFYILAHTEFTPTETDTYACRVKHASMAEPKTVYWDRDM
Method: Figure 4 Cell Surface versus Intracellular Loading of mCD1d with Different αGalCer Analogs (A) On the left, surface accumulation of CD1d-αGalCer complexes was studied with JAWS II cells harvested after incubation with the indicated glycolipids for 1, 4, or 16 hr and then stained without permeabilization with mAb L363 (red). Cells were then fixed, stained with DAPI for nuclei visualization (blue), and analyzed by confocal microscopy. On the right, the intracellular formation and trafficking of CD1d-αGalCer complexes were analyzed by treatment of JAWS II cells with αGalCer analogs for 1, 4, and 16 hr followed by fixation and permeabilization. The cells were stained for CD1d-αGalCer complexes (L363, red), late endosomes and lysosomes (anti-LAMP-1, green), and nuclei (DAPI, blue). Results are representative of three separate experiments. The scale bar represents 10 μm. […] Supernatant concentrations of IL-2 release were determined after 12 hr. […]
For in vitro stimulation, murine iNKT hybridomas at 5 × 10^4 cells/well in 96-well plates were stimulated with an equal number of either JAWS II cells or transfected A20 cells in complete medium with glycolipids for 12 hr at 37°C, and levels of murine IL-2 secretion were determined. […] Subsequently the levels of IL-4, IL-13, and IFN-γ in culture supernatants were quantified by capture ELISA. […]

GM1-enriched lipid rafts = type: cell-based, mouse; conditions: JAWS II cells, 18 hr with 100 nM glycolipid
human iNKT cells = test: In vitro expansion of human iNKT cells from PBMC (FACS with 6B11 and anti-CD3); type: cell-based; conditions: 100 nM glycolipid, IL-2 and IL-7, day 7
Method: Figure S3. Responses of human iNKT cells to Th2 cell-type cytokine biasing […]
(A) For in vitro expansion of iNKT cells, 2 million human PBMC per well in 96 well plates were stimulated with 100 nM of glycolipids in the presence of IL-2 (60 IU/ml) and IL-7 (5 ng/ml). At day 7, cultures were harvested and analyzed by FACS using 6B11 (specific for the TCRα chain of iNKT cells) and anti-CD3 mAbs. Significant expansion of human […]
all glycolipids with the exception of OCH. Similar results were obtained in three independent experiments from 6 different donors.
(B) Cytokine production by a CD4+ human iNKT clone (HDD11) stimulated with human monocyte-derived dendritic cells pulsed with αGalCer analogues. For in vitro activation of human iNKT cells, 5 x 10^4 cloned iNKT cells per well were stimulated with 2.5 x104 […]

In the case of `CCCCCCCCCCCCCCCCCCCCCCCC(=O)NC(COC1OC(CO)C(O)C(O)C1O)C(O)C(O)CCCCCCCCCCCCCC` (centres unmarked) [αGalCer-C24:0], the “relative potency at activating iNKT cells” value (mCD1d.WT) is reported as “significantly more potent”.
For `CCCCCCCCCCCCCCC(O)C(O)C(COC1OC(CO)C(O)C(O)C1O)NC(=O)CCCCCCCCC` (centres unmarked) [αGalCer-C10:0], the “colocalization of L363 staining with CTxB staining” value (GM1-enriched lipid rafts) was “extremely limited colocalization with CTxB staining”.
With `CCCCCCCCCCCCCCCCCCCCCCCC(=O)NC(COC1OC(CO)C(O)C(O)C1O)C(O)C(O)CCCCC` (centres unmarked) [OCH] the “expansion of human iNKT cells (percentage of total viable lymphocytes)” value (human iNKT cells) was “exception”.
In the case of `CCCCCCCCCCCCCCCCCCCCCCCCCC(=O)NC(COC1OC(CO)C(O)C(O)C1O)C(O)C(O)CCCCCCCCCCCCCC` (centres unmarked) [αGalCer-C26:0, reference compound], the “relative potency at activating iNKT cells” value (mCD1d.WT) is reported as “significantly more potent” and the “colocalization of L363 staining with CTxB staining” value (GM1-enriched lipid rafts) is reported as “strong colocalization with CTxB staining”.
